In brackets after ≈: the same amount, converted by molar mass. Where two headings read alike, the source gives them in different places.
What was measured:
[1] = tested on: Staphylococcus aureus (ATCC strain 29213); assay: MIC of quality control strain on Mueller-Hinton agar and on Lasarus medium; type: cell-based
[2] = tested on: various strains of L. pneumophila; type: cell-based
[3] = tested on: Legionella pneumophila isolates; assay: microbe, parasite or virus in culture; type: cell-based; conditions: for MIC50 / MIC90: Legionella pneumophila; for MIC50: read-out: MIC50 (average); for MIC90: read-out: MIC90 (average)
rats = conditions: rat, in vivo, po
Legionella = type: cell-based
[4] = ATCC29213, S. aureus ATCC 29213 on Lasarus medium, read-out: MIC100 (on Lasarus medium)
[5] = ATCC29213, S. aureus ATCC 29213 on standard Mueller-Hinton agar, read-out: MIC100 (on M-Hinton)
[6] = 92 Legionella pneumophila isolates on Lasarus solid medium
[7] = average across 92 Legionella pneumophila isolates on Lasarus solid medium

Compound: CO[C@H]1/C=C/O[C@@]2(C)Oc3c(C)c(O)c4c(O)c(c(/C=N/N5CCN(C)CC5)c(O)c4c3C2=O)NC(=O)/C(C)=C\C=C\[C@H](C)[C@H](O)[C@@H](C)[C@@H](O)[C@@H](C)[C@H](OC(C)=O)[C@@H]1C [Rifampacin]
- MIC [1, 4]: 0.016 µg/mL
- MIC [1, 5]: 0.016 µg/mL
- number of strains that could grow (on average) ([2]; BCYE, antibiotic 0.06 μg/ml): more than 30 strains
- number of strains that could grow (on average) ([2]; BCYE, antibiotic 0.125 μg/ml): more than 15 strains
- number of strains tested that could grow (on average) ([2]; Lasarus medium, antibiotic 0.004 μg/ml, quadruplicate): ~35 strains
- number of strains that could grow (on average), reduced number ([2]; medium, antibiotic concentration printed as 0.004 μg/ml (second mention)): less than 15 strains
- Ranges (MIC100) [3, 6]: 0.002 to 0.008 µg/mL
- MIC50 [3]: 0.004 µg/mL (≈ 0.00486 µM)
- MIC90 [3]: 0.008 µg/mL (≈ 0.00972 µM)

Compound: [Cl-].[Na+] [NaCl, sodium chloride]
- LD50 (rats): 3000 mg/kg
- MIC50 (Legionella): 150 mM
- MIC90 (Legionella): 150 mM

Compound: CC1(C)S[C@@H]2[C@H](NC(=O)[C@H](N)c3ccccc3)C(=O)N2[C@H]1C(=O)O [Ampacilin]
- MIC50 (average) [3]: 8 µg/mL (≈ 22.9 µM)
- MIC90 (average) [3]: 32 µg/mL (≈ 91.6 µM)
- Ranges (MIC100) [3]: 1 to 32 µg/mL

Compound: [Ba+2].[Cl-].[Cl-] [BaCl2, barium chloride]
- LD50 (rats): 78 mg/kg
- MIC50 (Legionella): 4 mM
- MIC90 (Legionella): 9 mM

Compound: [Cl-].[Cs+] [CsCl, caesium chloride]
- LD50 (rats): 2600 mg/kg
- MIC50 (Legionella): 18 mM
- MIC90 (Legionella): 37 mM

Compound: [Ca+2].[Cl-].[Cl-] [CaCl2, calcium chloride]
- LD50 (rats): 1000 mg/kg
- MIC50 (Legionella): 9 mM
- MIC90 (Legionella): 18 mM

Compound: O=C(N[C@H](CO)[C@H](O)c1ccc([N+](=O)[O-])cc1)C(Cl)Cl [Chloramphenicol]
- MIC [1, 4]: 4 µg/mL
- MIC [1, 5]: 4 µg/mL
- Ranges (MIC100) [3, 6]: 0.25 to 1 µg/mL
- MIC50 [3]: 0.5 µg/mL (≈ 1.55 µM)
- MIC90 [3]: 0.5 µg/mL (≈ 1.55 µM)

Compound: [Cl-].[Cl-].[Sr+2] [SrCl, strontium chloride]
- LD50 (rats): 2250 mg/kg
- MIC50 (Legionella): 18 mM
- MIC90 (Legionella): 18 mM

Compound: CC[C@H]1OC(=O)[C@H](C)[C@@H](O[C@H]2C[C@@](C)(OC)[C@@H](O)[C@H](C)O2)[C@H](C)[C@@H](O[C@@H]2O[C@H](C)C[C@H](N(C)C)[C@H]2O)[C@](C)(O)C[C@@H](C)CN(C)[C@H](C)[C@@H](O)[C@]1(C)O [Azithromycin]
- MIC [1, 4]: 2 µg/mL
- MIC [1, 5]: 2 µg/mL
- number of strains that could grow (on average) ([2]; BCYE, antibiotic 0.25 μg/ml): more than 20 strains
- number of strains that could grow (on average) ([2]; BCYE, antibiotic 0.5 μg/ml): > 5 strains
- number of strains tested that could grow (on average) ([2]; Lasarus medium, antibiotic 0.03 μg/ml): ~20 strains
- number of strains tested that could grow ([2]; Lasarus medium, antibiotic 0.125 μg/ml): None
- number of strains that could grow (on average) ([2]; medium (Lasarus), antibiotic 0.06 μg/ml): less than 15 strains
- Ranges (MIC100) [3, 6]: 0.008 to 0.25 µg/mL
- MIC50 [3]: 0.03 µg/mL (≈ 0.0401 µM)
- MIC90 [3]: 0.125 µg/mL (≈ 0.167 µM)

Compound: CN(C)[C@@H]1C(O)=C(C(N)=O)C(=O)[C@@]2(O)C(O)=C3C(=O)c4c(O)cccc4[C@@](C)(O)[C@H]3C[C@@H]12 [Tetracycline]
- Ranges (MIC100) [3, 6]: 32 to 128 µg/mL
- MIC50 [3]: 128 µg/mL (≈ 288 µM)
- MIC90 [3]: 128 µg/mL (≈ 288 µM)

Compound: [Cl-].[Rb+] [RbCl, rubidium chloride]
- LD50 (rats): 4440 mg/kg
- MIC50 (Legionella): 150 mM
- MIC90 (Legionella): 150 mM

Compound: beryllium sulfate [BeSO4]
- MIC50 (Legionella): 4 mM
- MIC90 (Legionella): 4 mM

Compound: Gentamycin
- Ranges (MIC100) [3, 6]: 0.06 to 1 µg/mL
- MIC50 (average) [3, 7]: 0.25 µg/mL
- MIC90 (average) [3, 7]: 0.5 µg/mL

Compound: O=C(O)c1cn(C2CC2)c2cc(N3CCNCC3)c(F)cc2c1=O [Ciprofloxacin]
- Ranges (MIC100) [3, 6]: 0.008 to 0.06 µg/mL
- MIC50 [3]: 0.03 µg/mL (≈ 0.0905 µM)
- MIC90 [3]: 0.06 µg/mL (≈ 0.181 µM)

Compound: [Cl-].[Cl-].[Mg+2] [MgCl, magnesium chloride]
- LD50 (rats): 2800 mg/kg
- MIC50 (Legionella): 37 mM
- MIC90 (Legionella): 75 mM

Compound: C[C@H]1COc2c(N3CCN(C)CC3)c(F)cc3c(=O)c(C(=O)O)cn1c23 [Levofloxacin]
- MIC [1, 4]: 0.25 µg/mL
- MIC [1, 5]: 0.25 µg/mL
- number of strains that could grow (on average) ([2]; BCYE, antibiotic 1 μg/ml): more than 25 strains
- number of strains that could grow (on average) ([2]; BCYE, antibiotic 2 μg/ml): more than 15 strains
- number of strains tested that could grow (on average) ([2]; Lasarus medium, antibiotic 0/03 μg/ml): ~30 strains
- Ranges (MIC100) [3, 6]: 0.008 to 0.06 µg/mL
- MIC50 [3]: 0.03 µg/mL (≈ 0.083 µM)
- MIC90 [3]: 0.06 µg/mL (≈ 0.166 µM)

Compound: [Cl-].[Li+] [LiCl, lithium chloride]
- LD50 (rats): 526 mg/kg
- MIC50 (Legionella): 75 mM
- MIC90 (Legionella): 75 mM
